Experimental findings from ChEMBL document CHEMBL5257035, “Nucleoside Derived Antibiotics to Fight Microbial Drug Resistance: New Utilities for an Established Class of Drugs?” (J Med Chem, 2016) are described below.

In test [1] the test system is Mycobacterium avium. Briefly: Antimycobacterial activity against Mycobacterium avium ATCC 25291 assessed as bacterial growth inhibition. Type of test: functional.
In test [2] the target is T1, Phospho-N-acetylmuramoyl-pentapeptide-transferase (Escherichia coli, UniProt E2QF15).
T1 sequence (E2QF15 whole entry): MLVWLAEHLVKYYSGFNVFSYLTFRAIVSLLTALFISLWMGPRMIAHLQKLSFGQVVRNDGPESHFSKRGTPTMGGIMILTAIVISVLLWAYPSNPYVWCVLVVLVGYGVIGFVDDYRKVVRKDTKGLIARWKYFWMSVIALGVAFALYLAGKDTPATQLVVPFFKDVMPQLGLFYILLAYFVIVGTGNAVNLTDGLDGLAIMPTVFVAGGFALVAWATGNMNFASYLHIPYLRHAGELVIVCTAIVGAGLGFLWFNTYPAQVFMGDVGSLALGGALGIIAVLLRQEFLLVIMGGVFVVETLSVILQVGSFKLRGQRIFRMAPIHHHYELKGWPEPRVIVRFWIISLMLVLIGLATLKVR
Briefly: Inhibition of MraY in Escherichia coli.

Test [3] concerns Candida albicans. Briefly: Antifungal activity against wild type Candida albicans. In kind it is functional.
Test [4] can be described thus: Inhibition of Escherichia coli topoisomerase 4.
Test [5] concerns Candida albicans. In words: Antifungal activity against Candida albicans ATCC 10231 assessed as reduction in fungal growth incubated for 12 hrs by broth microdilution method. Type of test: functional.
Another test has as its system Bacillus cereus. In words: Antibacterial activity against Bacillus cereus ATCC 11778 assessed as bacterial growth inhibition. Type of test: functional.
For a further test, the system named is Escherichia coli. In words: Antibacterial activity against Escherichia coli K12 assessed as bacterial growth inhibition measured after 24 hrs by micro broth dilution method. In kind it is functional.
Test [6] in a line: Binding affinity to Escherichia coli methionyl adenylate synthetase.
Test [7] has as its system Mycobacterium intracellulare. Briefly: Antimycobacterial activity against Mycobacterium intracellulare ATCC1954 E-3 assessed as microbial growth reduction. Type of test: functional.
Another test concerns Mycobacterium kansasii. In words: Antimycobacterial activity against Mycobacterium kansasii ATCC12478 assessed as microbial growth reduction. Type of test: functional.
Test [8] in a line: Inhibition of GMP synthase (unknown origin). Further details: species or system Homo sapiens.
For another test, the target named is Glutamine--tRNA ligase (Escherichia coli (strain K12), UniProt P00962). In words: Binding affinity to Escherichia coli K12 glutaminyl-tRNA synthetase assessed as inhibition constant.
In a further test the test system is Klebsiella pneumoniae. In words: Antibacterial activity against Klebsiella pneumoniae assessed as bacterial growth inhibition. In kind it is functional.
Another test has as its system Pseudomonas aeruginosa. In words: Antibacterial activity against Pseudomonas aeruginosa ATCC 15442 assessed as bacterial growth inhibition measured after 48 hrs by micro-broth dilution method. Type of test: functional.
The nature of test [9]: Inhibition of Candida albicans SC5314 chitin synthase using UDP-GlcNAc as substrate incubated for 1 hr.
Test [10] has as its system Candida albicans. In words: Antifungal activity against Candida albicans SC5314 assessed as reduction in microbial growth inhibition incubated for 48 hrs by broth microdilution assay. In kind it is functional. Background: In broth dilution the organism is exposed to a series of concentrations in liquid medium.
For test [11], the system named is Candida albicans. In words: Antifungal activity against Candida albicans B-311 assessed as reduction fungal growth incubated for 16 hrs by microbroth dilution method. Type of test: functional.
Test [12] relates to Candida albicans. In words: […] activity against Candida albicans assessed as […] measured after 24 hrs by microtitre dilution method. Type of test: functional.
Test [13] deals with Staphylococcus chromogenes. In words: Antibacterial activity against wild type Staphylococcus chromogenes 7100 assessed as bacterial growth inhibition. Type of test: functional.
Test [14] deals with Candida albicans. Briefly: Antifungal activity against Candida albicans assessed as inhibition of fungal growth. Type of test: functional.
For test [15], the system named is Cutaneotrichosporon cutaneum. In words: Antifungal activity against Trichosporon cutaneum 3071 assessed as reduction in microbial growth inhibition for 48 hrs by broth microdilution assay. Type of test: functional.
Test [16] deals with Mycobacterium avium. Briefly: Antimycobacterial activity against Mycobacterium avium ATCC 25291 assessed as reduction in microbial growth. In kind it is functional.

Structures are written as SMILES. pIC50, pKi: −log10 of the molar value. Converted amounts (≈) assume the structure as drawn.

Glutamine--tRNA ligase, sequence (P00962 whole entry): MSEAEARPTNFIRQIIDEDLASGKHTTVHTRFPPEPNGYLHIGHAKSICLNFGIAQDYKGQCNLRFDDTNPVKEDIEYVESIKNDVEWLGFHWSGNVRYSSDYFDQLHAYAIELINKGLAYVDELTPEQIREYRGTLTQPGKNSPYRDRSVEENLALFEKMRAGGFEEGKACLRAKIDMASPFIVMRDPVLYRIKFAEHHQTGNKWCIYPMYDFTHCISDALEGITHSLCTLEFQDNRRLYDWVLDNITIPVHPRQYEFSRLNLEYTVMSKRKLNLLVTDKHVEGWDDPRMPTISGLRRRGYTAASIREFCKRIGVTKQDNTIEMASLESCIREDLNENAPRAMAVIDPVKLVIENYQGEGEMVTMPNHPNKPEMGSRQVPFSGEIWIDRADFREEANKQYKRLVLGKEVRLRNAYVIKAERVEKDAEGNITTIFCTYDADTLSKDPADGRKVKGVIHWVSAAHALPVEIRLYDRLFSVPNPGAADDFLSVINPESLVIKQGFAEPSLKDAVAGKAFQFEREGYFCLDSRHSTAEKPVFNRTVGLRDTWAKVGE

The MIC is the lowest concentration found to suppress growth. With `CN1C(=O)[C@H]([C@H](O[C@H]2O[C@@H](CN)[C@H](O)[C@@H]2O)[C@H]2O[C@@H](n3ccc(=O)[nH]c3=O)[C@H](O)[C@@H]2O)N(C)CC=C1C(=O)O`, in the test with Mycobacterium avium [1], the MIC was 0.05 µg/mL (≈ 0.0897 µM).
The pIC50 is the negative decadic logarithm of the IC50, by convention in mol/L. High values mean a low IC50, low ones a high IC50. As for `NC[C@H]1O[C@@H](O[C@@H](Cc2cn(CCCCCCCCCCc3ccccc3)nn2)[C@H]2O[C@@H](n3ccc(=O)[nH]c3=O)[C@H](O)[C@@H]2O)[C@H](O)[C@@H]1O`, in test [2], the pIC50 was 5.10. This compound also showed an MIC in the test on Candida albicans [3] of 20 µg/mL (≈ 29.7 µM).
For orientation: Ki means the dissociation constant of the complex between target and ligand, obtained from inhibition or displacement. With `CCC(C)C(N)C(=O)NS(=O)(=O)OC[C@H]1O[C@@H](CCn2nnc(-c3ccccc3)n2)[C@H](O)[C@@H]1O` (some centres not stated), the Ki in [4] stood at 1.3 µg/mL (≈ 2.61 µM).
`CC1(C)O[C@@H]2[C@H](O1)[C@@H](Cn1cc(COc3ccccc3)nn1)O[C@H]2n1ccc(=O)[nH]c1=O`: the MIC in the test on Candida albicans [5] worked out at 8 µg/mL (≈ 18.1 µM).
As a reminder, the pKi is the Ki on a negative log10 scale, so that one unit is a factor of ten. With `CSCC[C@H](N)C(=O)OC[C@H]1O[C@@H](n2cnc3c(N)ncnc32)[C@H](O)[C@@H]1O`, the figures for the MIC with Bacillus cereus and in the test with Escherichia coli were 32 µg/mL (≈ 80.3 µM) and 0.5 µg/mL (≈ 1.25 µM), respectively. Further, the pKi in test [6] was 4.96.
As to `CO[C@H]1[C@@H](O)[C@H](n2ccc(=O)[nH]c2=O)O[C@@H]1[C@@H](O[C@@H]1OC(C(=O)Nc2ccc(F)c(F)c2)=C[C@@H](O)[C@H]1O)C(N)=O`, the MIC (in test [7]; with Mycobacterium kansasii) was 0.5 µg/mL (≈ 0.876 µM) in each case.
On to `NC(=O)c1ncn([C@@H]2O[C@H](CO)[C@@H](O)[C@H]2O)c1O` [MIZORIBINE], for which, in test [8], the negative logarithm of the Ki (pKi) was 4.00.
For the compound `NC(=O)CCC(N)COP(=O)(O)OC[C@H]1O[C@@H](n2cnc3c(N)ncnc32)[C@H](O)[C@@H]1O` (some centres not stated), the negative-log Ki (pKi) on Glutamine--tRNA ligase was 6.55.
Regarding `Cc1cn([C@H]2C[C@H](N=[N+]=[N-])[C@@H](COC(=O)C(=O)N[C@@H](CC(C)C)C(=O)O)O2)c(=O)[nH]c1=O`, the MIC in the test with Klebsiella pneumoniae was 0.125 µg/mL (≈ 0.276 µM).
`C[C@H](N)C(=O)N(C)C[C@H](NC(=O)[C@H](C)NC(=O)N[C@@H](Cc1c[nH]c2ccccc12)C(=O)O)C(=O)NCC1C[C@@H](O)[C@H](n2ccc(=O)[nH]c2=O)O1` (some centres not stated): the MIC with Pseudomonas aeruginosa was 64 µg/mL (≈ 91.5 µM).
A word on the IC50: it is the concentration needed to halve the response being measured. In turn, `C[C@@H]([C@H](N)C(=O)N[C@H](C(=O)O)[C@H]1OC(n2cc(C=O)nc2O)[C@H](O)[C@@H]1O)[C@H](O)c1ccc(O)cn1` (some centres not stated) [NIKKOMYCIN X] displayed an IC50 in test [9] of 0.1 µg/mL (≈ 0.202 µM). Further, the MIC in the test with Candida albicans [10] was found to be 16 µg/mL; in the test with Candida albicans [11], 2.5 µg/mL (≈ 5.05 µM); with Candida albicans [12] it was 0.5 µg/mL (≈ 1.01 µM); in [13] it was 2 µg/mL (≈ 4.04 µM); with Candida albicans [14] it was 2 µg/mL (≈ 4.04 µM); in test [15], 64 µg/mL.
For the compound `CCCCCCCCCC[C@H](CC(=O)O[C@H]1CN(C)[C@@H]([C@@H](O[C@@H]2O[C@H](CN)[C@@H](O)[C@H]2O)[C@H]2O[C@@H](n3ccc(=O)[nH]c3=O)[C@H](O)[C@@H]2O)C(=O)N(C)[C@@H]1C(=O)O)OC(=O)C[C@H](C)CC(=O)O`, the MIC in the test with Mycobacterium avium [16] is 1.2 µg/mL.
